Where two headings read alike, the source gives them in different places.
Key:
[1] = PU-H71 tumor concentration by LC-MS/MS; assay type: in vivo, mice; details: mouse, tumor (MDA-MB-468), read-out: actual tumor concentration by LC-MS/MS; for concentration at 24 h: 24 h after last dose
Excerpt: LC-MS/MS analyses. […] Samples were reconstituted in mobile phase.

[2] = system: oncogenic HSP90; assay: PU-H71-FITC2 binding to pancreatic and breast cancer cell lines relative to HL-60 versus viability
[3] = system: AML cell lines; assay: apoptosis in AML cell lines, acridine orange/ethidium bromide; assay type: cell-based, human
Experimental: Apoptosis Assay: Cells were treated for 24, 48 or 72 h with vehicle (DMSO) or inhibitors as indicated. Following staining with Acridine Orange and Ethidium Bromide (1:1 mix of 100 µg/ml), cells were visualized with a fluorescent microscope (Zeiss Axiovert 40 CFL) and counted. Percentage of apoptotic cells was determined from 200-300 cells counted in each group. The percentage of apoptotic cells was calculated as: % Apoptotic cells=(total number of cells with apoptotic nuclei/total number of cells counted)×100.

[4] = system: MO-91 tumors; assay: pharmacodynamic study in MO-91 xenografted tumors; assay type: in vivo, mice; details: post-administration of one dose
Experimental: Pharmacodynamic Study: Four- to 6-week-old nu/nu athymic female mice were obtained from Taconic Farms. Experiments were carried out under an Institutional Animal Care and Use Committee-approved protocol, and institutional guidelines for the proper and humane use of animals in research were followed. HEL and MO-91 cells were subcutaneously implanted in the right flank of mice using a 20-gauge needle and allowed to grow. Before administration, a solution of PU-H71-HCl was formulated in sterile PBS. For this assay, tumors were allowed to reach 6-8 mm in diameter before treatment. […] Tumors were homogenized and proteins analyzed by western blot as described above.

[5] = system: MDA-MB-468 cells; assay: MDA-MB-468 and other breast cancer cells in vitro: growth inhibition, client depletion, apoptosis
[6] = system: HSP90; assay type: binding
[7] = system: patient tumors; assay: [^124I]-PU-H71 PET/CT in cancer patients, tumor exposure to PU-H71; details: for tumor AUC: two weeks; for tumor AUC0-48 h: paratracheal node
[8] = system: MDA-MB-468 tumors; assay: efficacy in MDA-MB-468 xenografts; assay type: in vivo, mice; details: for anti-tumor effect: 75 mg/kg, 5 weeks
Experimental: Efficacy Studies. Mice (n=5) bearing MDA-MB-468 tumors reaching a volume of 100-150 mm^3 were treated i.p. (i.p.) using different doses and schedules, as indicated. Tumor volume was determined by measurement with Vernier calipers, and tumor volume was calculated as the product of its length×width^2×0.4. Tumor volume was expressed on indicated days as the median tumor volume±SD indicated for groups of mice. Percent (%) tumor growth inhibition values were measured on the final day of study for drug-treated compared with vehicle treated mice and are calculated as 100×{1−[(TreatedFinal day−TreatedDay 1)/(ControlFinal day−ControlDay 1)]}. Tumor regression values were determined by calculating the ratio of median tumor volumes at the time when treatment was initiated to median tumor volume on the final day of study for a given treatment group. Percent (%) tumor regression is 100×[1−(TreatedFinal day/TreatedDay 1)].

[9] = system: MDA-MB-468 tumors; details: 75 mg/kg, reference 100; cited from earlier work
[10] = HER2+ breast cancer patient, 10 mg/m^2 5 times a week
[11] = HER2+ breast cancer patient, 10 mg/m^2 once a week
[12] = HER2+ breast cancer patient, 10 mg/m^2 three times a week
[13] = pancreatic cancer patient, first tumor, 80 mg/m2 2×week
[14] = pancreatic cancer patient, left lung, 20 mg/m2 twice-week
[15] = pancreatic cancer patient, right hilum LN, 20 mg/m2 twice-week
[16] = pancreatic cancer patient, second tumor, 80 mg/m2 2×week

`CC(C)NCCCn1c(Sc2cc3c(cc2I)OCO3)nc2c(N)ncnc21` [PU-H71] showed a concentration at 24 h ([1]; 5 mg/kg 3×week) of 0.52 ± 0.13 µM, a concentration at 24 h ([1]; 75 mg/kg 1×week) of 5.53 ± 0.26 µM and a concentration at 96 h ([1]; 75 mg/kg 1×week, 96 h after last dose) of 3.09 ± 1.4 µM. The “sensitivity of HL-60 leukemia cells” value [2] was “resistant”, the cells undergoing apoptosis ([3]; HEL, 72 h) was 30% and the cells undergoing apoptosis ([3]; MOLM-13 and MO-91, 72 h) was ~100%. For the same compound, the cells undergoing apoptosis ([3]; SKNO-1 and Kasumi-1, 72 h) was 50-60%, the “duration of apoptosis after one dose” value [4] was 96 h and the “concentrations resulting in HSP90 inhibition (depletion of Raf-1, Akt)” value ([5]; MDA-MB-468, 24 h) was “above 0.1 μM”. For the same compound, the “concentration required for about 50% of cells undergoing apoptosis” value ([5]; MDA-MB-468, 48 h) was 0.5 µM, the “concentration required for about 100% of cells undergoing apoptosis” value ([5]; MDA-MB-468, 48 h) was “about 5 μM” and the cells undergoing apoptosis ([5]; MDA-MB-468, >2 μM, 48 h) was > 70%. For the same compound, the “fraction of total cellular HSP90 bound” value [6] was “approximately 30%”, the average tumor concentration [7, 10] was 0.81 µM and the “tumor AUC0-336 h” value [7, 10] was 189.8 μM-h. The average tumor concentration [7, 11] was 0.41 µM, the “tumor AUC0-336 h” value [7, 11] was 54 μM-h and the average tumor concentration [7, 12] was 0.71 µM. For the same compound, the “tumor AUC0-336 h” value [7, 12] was 140.8 μM-h, the average tumor concentration ([7]; HER2+ breast cancer patient, 10 mg/m^2 twice a week) was 0.59 µM and the “tumor AUC0-336 h” value ([7]; HER2+ breast cancer patient, 10 mg/m^2 twice a week for two weeks) was 103 μM-h. The average tumor concentration [7, 13] was > 2.8 µM, the tumor exposure [7, 13] was “above 760 uM-h” and the average tumor concentration [7, 14] was 0.71 µM. For the same compound, the “tumor AUC” value [7, 14] was 190 μM-h, the average tumor concentration [7, 15] was 1.57 µM and the “tumor AUC” value [7, 15] was 499 μM-h. For the same compound, the average tumor concentration [7, 16] was > 6.3 µM, the tumor exposure [7, 16] was > 1998 uM-h and the “tumor AUC0-48 h” value ([7]; 10 mg/m^2, estimated from [^124I]-PU-H71 PET) was 24.9 μM-h. The “tumor AUC0-48 h” value ([7]; co-injection with 10 mg/m2 PU-H71) was 22.3 μM-h, the “tumor volume at end of treatment” value ([8]; 5 mg/kg arm) was 139±66 mm^3 and the “tumor growth inhibition (TGI)” value ([8]; 5 mg/kg i.p. 3×week, 7 weeks) was 63%. The “tumor growth inhibition (TGI)” value ([8]; 25 mg/kg i.p. 3×week, 7 weeks) was 82%, the “tumor growth inhibition (TGI)” value ([8]; 50 mg/kg i.p. 3×week, 7 weeks) was 99% and the regression ([8]; 75 mg/kg i.p. 3×week, 7 weeks) was 100%. The anti-tumor effect ([8]; 1×week) was “significant tumor growth inhibition”, the anti-tumor effect ([8]; 2×week) was “tumor regressions” and the “average occupancy of tumor HSP90 sites needed for tumor regression and cure” value ([8]; averaged over the time of treatment) was “over 80%”. For the same compound, the “average occupied sites that may still lead to partial response” value ([8]; over the time of treatment) was ≥ 15%, the “average tumor concentration needed for tumor regression and cure” value ([8]; over the time of treatment) was 5 µM and the “average tumor concentration that may still lead to partial response” value ([8]; over the time of treatment) was ≥ 0.5 µM. For the same compound, the anti-tumor effect [9] was “tumor regression and cures”.
